The source of these data is patent US4525475A, “Prevention of thrombolic disorder with imidazole derivatives and salts thereof” (priority 1979, dated 1985).

In test [1] the target is T1, TXA2 synthetase (Equus caballus, UniProt A0A9L0T8T9).
T1 construct: labelled arachidonic acid as substrate, thromboxane B2 measured by TLC
T1 sequence (A0A9L0T8T9 2-534): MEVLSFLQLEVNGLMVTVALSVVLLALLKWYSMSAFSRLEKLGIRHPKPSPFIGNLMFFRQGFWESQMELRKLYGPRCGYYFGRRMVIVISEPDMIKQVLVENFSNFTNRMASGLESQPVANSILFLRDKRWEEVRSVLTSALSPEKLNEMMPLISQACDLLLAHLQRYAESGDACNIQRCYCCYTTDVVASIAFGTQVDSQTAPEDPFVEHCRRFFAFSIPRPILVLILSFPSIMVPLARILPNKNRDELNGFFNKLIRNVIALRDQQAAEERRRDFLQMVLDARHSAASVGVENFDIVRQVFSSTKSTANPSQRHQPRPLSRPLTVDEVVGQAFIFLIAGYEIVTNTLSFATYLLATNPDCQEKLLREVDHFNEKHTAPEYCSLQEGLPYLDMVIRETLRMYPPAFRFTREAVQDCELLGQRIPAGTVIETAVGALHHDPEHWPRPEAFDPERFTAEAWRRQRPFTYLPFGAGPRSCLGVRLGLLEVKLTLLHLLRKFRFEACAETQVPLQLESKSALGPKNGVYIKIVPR
In words: Inhibition of TXA2 synthetase: thromboxane (thromboxane B2) produced from labelled arachidonic acid by homogenised horse platelets. Type of test: biochemical. The following applies: horse platelet homogenate, 100 mM Tris buffer pH 7.4, 5 min preincubation at ambient temperature, 3 min at 37° C. with arachidonic acid; for IC50: read-out: ED50 (concentration of active compound to reduce the enzyme activity by 50%) (converted). The method, then: (§1) Horse platelets were prepared from whole horse blood by differential centrifugation. Approximately 10^6 platelets were homogenised in 1 ml 100 mM Tris buffer pH 7.4. Various concentrations of active compound were added and the reaction sets incubated for 5 minutes at ambient temperature. To each tube was added 20 nM of arachidonic acid containing 10^6 disintegrations per minute (DPM) of labelled arachidonic acid and the tubes incubated for 3 minutes at 37° C. in a shaking water bath. After incubation the radioactive products were extracted from the acidified aqueous phase with ethyl acetate and after concentration resolved by thin layer chromatography on silica gel with chloroform/methanol/acetic acid/water (90:8:1:0.8) as a developing solvent. The amount of thromboxane produced was measured by scraping the radioactive zone corresponding to thromboxane B2 and estimating the radioactivity in a liquid scintillation counter.
The concentration of active compound to reduce the enzyme activity by 50% (ED50) was established.

The subject of test [2] is PGE, PGF and PGD. Briefly: Selectivity: amount of PGE, PGF and PGD produced, measured in a similar manner to the thromboxane test. Type of test: biochemical, horse. Also noted: key: 0: no selectivity; +: low selectivity; ++: medium selectivity; +++: high selectivity; ++++: exceptionally high selectivity. To be noted: greater selectivity = more anti-aggregating prostaglandins produced. The method, then: as §1
The selectivity of the active compounds was measured in a similar manner to that described above and the amount of PGE, PGF and PGD produced was determined. The greater the selectivity, the more of the anti-aggregating prostaglandins are produced.
The ED50 and Selectivity results are shown in Table A in which 0 indicates no selectivity; +low selectivity; ++medium selectivity; +++high selectivity: ++++exceptionally high selectivity; ND not determined.

Test [3] relates to enzymic conversion of the endoperoxides (PGG2 and PGH2) to thromboxane A2 by platelet microsomes. The following applies: Moncada et al., Prostaglandins, 13/4, 611-618, 1977; cited from earlier work.
Test [4] concerns serum cholesterol. The following applies: U.K. Pat. No. 1 364 312; Biochem. Pharmacol., 24, 1902-1903, 1975; cited from earlier work.

pIC50: −log10 of the molar value. Like-named read-outs stand apart in the source and are kept apart here.

As for `Cn1ccnc1` [1-Methylimidazole, reference compound], the IC50 in test [1] is at least 2440 µM. In addition, the Selectivity entry in test [2] was “++”. The “inhibition of the enzymic conversion of the endoperoxides to thromboxane A2” value in test [3] is “some degree of inhibition”.
For the compound `CCCCCCCCCCCCn1ccnc1` [1-n-dodecylimidazole], the “lowering serum cholesterol levels” value in test [4] is on record as “capable of lowering serum cholesterol levels”.
In the case of `CC1(C)C(=CCn2ccnc2)C2CCC1C2` (centres unmarked) [15 (b), 1-[2-(3,3-Dimethylbicyclo[2.2.1]heptan-2-ylidene)ethyl]imidazole], in test [1], the IC50 is below 69.3 µM.
Regarding `c1cn(CC2C3CC4C(C3)C24)cn1` (centres unmarked) [15 (c), 1-(Tricyclo[2.2.1.0^3,5]heptan-2-ylmethyl)imidazole], in test [1], the IC50 is below 57.4 µM. Further, the Selectivity result in test [2] is recorded as “+++”.
The like results for `CC1(C)C2CCC(CCn3ccnc3)C1C2` (centres unmarked) [Example 1, 1-[2-(6,6-dimethylbicyclo[3.1.1]heptan-2-yl)ethyl]imidazole] were, in that order, 19.7 µM and “+++”.
Turning to `CC1(C)C2CC=C(CCn3ccnc3)C1C2` (centres unmarked) [Example 2, 1-[2-(6,6-Dimethylbicyclo[3.1.1]hept-2-en-2-yl)ethyl]imidazole], in test [1], the IC50 was 16.2 µM. Besides, in test [2], the Selectivity result is “+++”.
The like results for `C1=CC2CC1CC2Cn1ccnc1` (centres unmarked) [Example 3, 1-(Bicyclo[2.2.1]hept-5-en-2-ylmethyl)imidazole] were, in that order, 57.4 µM and “+++”.
The like results for `c1cn(CC2CC3CCC2C3)cn1` (centres unmarked) [Example 4, 1-(Bicyclo[2.2.1]heptan-2-ylmethyl)imidazole] were, in that order, 28.4 µM and “+++”.
Taken in the same sequence, the figures for `CC1(C)C2CC=C(Cn3ccnc3)C1C2` (centres unmarked) [Example 7, 1-(6,6-Dimethylbicyclo[3.1.1]hept-2-en-2-ylmethyl)imidazole] were 74.1 µM and “+++”.
In the case of `CC1(C)C2CCC(Cn3ccnc3)C1C2` (centres unmarked) [Example 8, 1-(6,6-Dimethylbicyclo[3.1.1]heptan-2-ylmethyl)imidazole], in test [1], the IC50 is 24.5 µM. The Selectivity result in test [2] is “+++”.
The like results for `c1cn(CCC23CC4CC(CC(C4)C2)C3)cn1` [Example 9, 1-[2-(Adamantan-1-yl)ethyl]imidazole] were, in that order, 65.1 µM and “++++”.
On to `c1cn(CC2COC3(CCCCC3)O2)cn1` (centres unmarked) [Example 10, 1-(1,4-Dioxaspiro[4.5]decan-2-ylmethyl)imidazole], for which the IC50 in test [1] is above 225 µM.
As to `c1cn(C2CC3CCC2C3)cn1` (centres unmarked) [Example 11, 1-(Bicyclo[2.2.1]heptan-2-yl)imidazole], the IC50 in test [1] was 290 µM.
Consider `c1cn(CC2CN3CCC2CC3)cn1` (centres unmarked) [Example 12, 1-(1-Azabicyclo[2.2.2]octan-3-ylmethyl)imidazole], for which, in test [1], the IC50 was 157 µM. The Selectivity result in test [2] is on record as “++”.
As to `C1=CC2CC1CC2CC(C1CC2C=CC1C2)n1ccnc1` (centres unmarked) [Example 13, 1-{1,2-[Bis-(bicyclo[2.2.1]hept-5-en-2-yl)]ethyl}imidazole], in test [1], the IC50 was 89.2 µM. The Selectivity result in test [2] was “++”.
Take `c1c[nH]cn1` [Imidazole]: the pIC50 in test [1] (read-out: ED50 (concentration of active compound to reduce the enzyme activity by 50%)) is at most 2.13. Moreover, the “inhibition of the enzymic conversion of the endoperoxides to thromboxane A2” value in test [3] is recorded as “some degree of inhibition”.
